Values quoted from earlier work, collected in patent US20240264159A1 (priority 2021, published 2024).

System: SARS-CoV-2
Conditions: Bewley et al., 2021; cited from earlier work

heparin
inhibition of SARS-CoV-2 entry into cells: inhibit SARS-CoV-2 entry into cells
